Assay [1] relates to α1 sites. Nature of the assay: Affinity for α1 sites (procedure of Morrow et al). The format is binding. Conditions: read-out: Affinity for α1 site IC50.
The target in assay [2] is T1, 5-HT1A receptor (Cavia porcellus, UniProt A0A286Y074).
T1 construct: in the guine-pig ileum in in vitro; from tissue; host or cells: guinea-pig isolated ileum
T1 sequence (A0A286Y074 1-421): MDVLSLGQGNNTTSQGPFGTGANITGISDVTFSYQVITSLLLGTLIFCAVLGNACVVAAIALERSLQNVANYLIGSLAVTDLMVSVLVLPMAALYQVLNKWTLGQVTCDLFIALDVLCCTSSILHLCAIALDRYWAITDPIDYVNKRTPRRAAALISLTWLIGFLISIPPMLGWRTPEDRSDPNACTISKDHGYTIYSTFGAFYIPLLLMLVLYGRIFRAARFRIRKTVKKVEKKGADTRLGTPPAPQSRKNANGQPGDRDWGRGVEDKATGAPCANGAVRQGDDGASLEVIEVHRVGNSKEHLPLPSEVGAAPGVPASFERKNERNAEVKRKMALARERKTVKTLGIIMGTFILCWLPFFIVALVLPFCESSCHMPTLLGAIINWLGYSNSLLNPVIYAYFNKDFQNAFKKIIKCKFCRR
Nature of the assay: 5-HT1A receptor antagonism: antagonism of 5-carboxamidotryptamine in isolated ileum in vitro. On the set-up: species or system guine-pig. Conditions: guinea-pig ileum in vitro, read-out: pA2 (converted).
Method: The compounds are tested for 5-HT1A receptor antagonism activity in a test involving the antagonism of 5-carboxamidotryptamine in the guine-pig ileum in in vitro (based upon the procedure of Fozard et al, Br J Pharmac 1985, 86, 601P).

In assay [3] the target is T2, 5-HT1A receptor (Rattus norvegicus, UniProt P19327).
T2 construct: rat hippocampal membrane homogenate; from tissue; host or cells: rat hippocampus membrane homogenate
T2 sequence (P19327 1-422): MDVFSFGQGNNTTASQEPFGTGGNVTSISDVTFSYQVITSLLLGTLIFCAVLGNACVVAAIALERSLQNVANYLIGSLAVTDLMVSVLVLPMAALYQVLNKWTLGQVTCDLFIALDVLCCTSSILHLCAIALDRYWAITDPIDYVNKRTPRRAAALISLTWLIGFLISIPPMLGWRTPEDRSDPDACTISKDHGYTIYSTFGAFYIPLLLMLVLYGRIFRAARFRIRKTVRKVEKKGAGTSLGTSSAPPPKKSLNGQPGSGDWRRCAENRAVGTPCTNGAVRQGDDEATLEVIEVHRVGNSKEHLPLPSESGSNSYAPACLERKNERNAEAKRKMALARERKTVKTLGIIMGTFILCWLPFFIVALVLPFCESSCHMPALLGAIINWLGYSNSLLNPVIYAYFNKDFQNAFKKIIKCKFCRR
Nature of the assay: 5-HT1A receptor binding activity in rat hippocampal membrane homogenate. The procedure:
The compounds of the invention were tested for 5-HT1A receptor binding activity in rat hippocampal membrane homogenate by the method of B S Alexander and M D Wood, J Pharm Pharmarol, 1988, 40, 888-891.

Assay [4] has as its target D2 receptor sites (Homo sapiens, UniProt P14416). Nature of the assay: Affinity for D2 receptor sites (procedure of Hancock et al). Conditions: read-out: Affinity for D2 site IC50. The format is binding.
Setting [5] is: 5-HT1A receptor binding, rat hippocampal membrane homogenate, read-out: IC50.

SMILES strings stand for the structures. Like-named read-outs stand apart in the source and are kept apart here.

Results on 19 compounds are retold here after patent publication EP0395312B1, “Piperazine derivatives” (JOHN WYETH & BROTHER LIMITED, priority 1989, dated 1990).

The IC50 is the point on the concentration scale where inhibition reaches its midpoint.

Chain of D2 receptor sites (P14416 whole entry): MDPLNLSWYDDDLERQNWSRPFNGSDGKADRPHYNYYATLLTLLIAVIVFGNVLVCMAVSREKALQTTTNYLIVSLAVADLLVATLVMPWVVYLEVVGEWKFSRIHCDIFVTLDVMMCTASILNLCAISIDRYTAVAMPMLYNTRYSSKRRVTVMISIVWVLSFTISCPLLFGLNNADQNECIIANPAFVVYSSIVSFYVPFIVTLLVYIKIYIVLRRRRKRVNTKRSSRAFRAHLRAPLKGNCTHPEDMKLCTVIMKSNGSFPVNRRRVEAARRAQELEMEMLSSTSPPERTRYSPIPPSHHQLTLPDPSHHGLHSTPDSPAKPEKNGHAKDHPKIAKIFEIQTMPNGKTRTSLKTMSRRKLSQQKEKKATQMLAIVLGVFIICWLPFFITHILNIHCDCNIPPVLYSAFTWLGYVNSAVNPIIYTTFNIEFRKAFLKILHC

For the compound `COc1ccccc1N1CCN(CC(C(=O)OCC(C)C)c2ccccc2)CC1` (stereo not shown) [Example 26, 2-Methylpropyl 3-{1-[4-(2-methoxyphenyl)piperazinyl]}-2-phenylpropanoate], the results for the half-inhibitory concentration (IC50) in assay [1] and in assay [3] (setting [5]) were 1090 nM and 46 nM, respectively. For the same compound, the Kb in assay [2] was 158 nM.

Regarding `COc1ccccc1N1CCN(CC(C(=O)N2CCCCC2)c2ccccc2)CC1` (stereo not shown) [Example 33, 1-{3-{1-[4-(2-methoxyphenyl)piperazinyl]}-2-phenylpropionyl}piperidine], the 50% inhibitory concentration (IC50) in assay [3] (setting [5]) was found to be 8 nM. The same measure, in the same setting: the figure for `COc1ccccc1N1CCN(CC(OC(=O)Nc2ccccc2)c2ccccc2)CC1` (stereo not shown) [Example 39, O-[2-[1-[4-(2-Methoxyphenyl)piperazinyl]]-1-phenylethyl]-N-phenylcarbamate] is 22 nM; for `COc1ccccc1N1CCN(CC(C(=O)NC2CCCCCCC2)c2ccccc2)CC1` (stereo not shown) [Example 35] it is 16.5 nM; for `CCOC(=O)C(Cc1ccccc1)CN1CCN(c2ccccc2OC)CC1` (stereo not shown) [Example 29, Ethyl 2-{1-[4-(2-methoxyphenyl)piperazinyl]methyl}-3-phenylpropanoate] it is 25 nM. `COc1ccccc1N1CCN(C[C@@H](NC(=O)C2CCCCC2)c2ccccc2)CC1` [Example 37, (S)-N-[2-[1-[4-(2-Methoxyphenyl)piperazinyl]]-1-phenylethyl]cyclohexanecarboxylic acid amide]: the figures for the IC50 in assay [1] and in assay [3] (setting [5]) were 7310 nM and 45 nM, respectively. The Kb in assay [2] is 25.1 nM. As for `CNC(=O)C(CN1CCN(c2ccccc2OC)CC1)c1ccccc1` (stereo not shown) [Example 8, methylamide], the IC50 in assay [3] (setting [5]) was 45 nM. In the case of `COc1ccccc1N1CCN(CC(C(=O)NC2CC2)c2ccccc2)CC1` (stereo not shown) [Example 31, cyclopropyl-amide], in assay [2], the Kb was 39.8 nM. The 50% inhibitory concentration (IC50) in assay [3] (setting [5]) is 28 nM. Regarding `COc1ccccc1N1CCN(CC(C(=O)N2CCCC2)c2ccccc2)CC1` (stereo not shown) [Example 32, 1-{3-{1-[4-(2-methoxyphenyl)piperazinyl]}-2-phenylpropionyl}pyrrolidine], the results for the IC50 in assay [1], in assay [4] and in assay [3] (setting [5]) were 851 nM, > 10000 nM and 21 nM, respectively. In assay [2], the Kb was 158 nM.

In the case of `CCOC(=O)N[C@H](CN1CCN(c2ccccc2OC)CC1)c1ccccc1` [Example 41, Ethyl(S)-N-[2-[1-[4-(2-methoxyphenyl)piperazinyl]]-1-phenylethyl]carbamate], the values for the IC50 in assay [1] and in assay [3] (setting [5]) were 2850 nM and 88 nM, respectively. Regarding `COc1ccccc1N1CCN(CC(C(=O)NCCN2C(=O)CC3(CCCC3)CC2=O)c2ccccc2)CC1` (stereo not drawn) [Example 21, 8-{α-{1-[4-(2-methoxyphenyl)piperazinyl]methyl}phenylacetamidoethyl}-8-azaspiro[4.5]deca-7,9-dione], the half-inhibitory concentration (IC50) in assay [1] was determined as 1200 nM; in assay [3] (setting [5]) it was 49 nM. The Kb in assay [2] was 126 nM. As to `COc1ccccc1N1CCN(CC(C(=O)NCc2ccccc2)c2ccccc2)CC1` (stereo not shown) [Example 23, 3-{1-[4-(2-Methoxyphenyl)piperazinyl]}-2-phenyl-N-(phenylmethyl)propanamide], the Kb in assay [2] is 100 nM. For the same compound, in assay [3] (setting [5]), the IC50 came out at 59 nM.

As to `COc1ccccc1N1CCN(CC(C(=O)N2CCCCCC2)c2ccccc2)CC1` (stereo not shown) [Example 34, 2,3,4,5,6,7-hexahydro-1-{3-{1-[4-(2-methoxyphenyl)piperazinyl]}-2-phenylpropionyl}-1H-azepine], the IC50 in assay [3] came to 9 nM. As for `COc1ccccc1N1CCN(CC(C(=O)N(C)C)c2ccccc2)CC1` (stereo not shown) [Example 22, N,N-Dimethyl-3-{1-[4-(2-methoxyphenyl)piperazinyl]}-2-phenylpropanamide], the IC50 in assay [1] was 1230 nM; in assay [3] (setting [5]) it was 45 nM. For the compound `COc1ccccc1N1CCN(CC(OC(=O)C2CCCCC2)c2ccccc2)CC1` (stereo not shown) [Example 40, 2-{1-[4-(2-Methoxyphenyl)piperazinyl]}-1-phenylethyl cyclohexanecarboxylate], the concentration for half-maximal inhibition (IC50) in assay [3] (setting [5]) came to 78 nM. Regarding `COc1ccccc1N1CCN(CC(C(=O)NC2CCCCC2)c2ccccc2)CC1` (stereo not shown) [Example 19], the IC50 in assay [4] came to 6290 nM; in assay [3] (setting [5]), 24 nM. Further, in assay [2], the Kb was 126 nM. Turning to `COc1ccccc1N1CCN(CC(C(=O)Nc2ccccc2)c2ccccc2)CC1` (stereo not shown) [Example 6, 3-{1-[4-(2-Methoxyphenyl)piperazinyl]}-2-phenyl-N-phenylpropanamide], the IC50 in assay [3] (setting [5]) turned out to be 127 nM.

In the case of `COC(=O)C(CN1CCN(c2ccccc2OC)CC1)c1ccccc1` (stereo not shown) [Example 42, Methyl 3-[1-[4-(2-methoxyphenyl)piperazinyl]]-2-phenylpropionate], the results for the IC50 in assay [1] and in assay [3] (setting [5]) were 988 nM and 37 nM, respectively. Also, the Kb in assay [2] is 126 nM. Take `O=C(NC1CCCCC1)C(CN1CCN(c2ncccn2)CC1)c1ccccc1` (stereo not shown) [Example 24, N-Cyclohexyl-2-phenyl-3-{1-[4-(2-pyrimidinyl)piperazinyl]}propanamide]: the results for the half-inhibitory concentration (IC50) in assay [1] and in assay [3] (setting [5]) were > 10000 nM and 75 nM, respectively.
